Measured values published in patent US7601739B2, “Compounds having antiestrogenic and tissue selective estrogenic properties, and compounds with anti-androgenic properties for treatment of prostate cancer and androgen receptor dependent diseases” (Virgina Commonwealth University, priority 2006, dated 2009).

How the values were obtained:
[1] = tested on: hER; assay: Fluorescence-based competitive binding assay for hER (displacement of fluormone ES2); parameters: species or system human; conditions: RBA = IC50 of tamoxifen/IC50 of test molecule; tamoxifen set at 1
Protocol: The estrogen receptor competitor assay kits (Panvera, Madison, Wis.) were used to determine the ability of test molecules to displace the fluormone, ES2, from hER -ES2 or hER -ES2 complex. Serial dilutions of each test molecule were prepared in methanol or DMSO. The recombinant hER or hER (7 nM) was preincubated with ES2 (1 nM) in screening buffer. After the preincubation, the test molecules and ER-ES2 complex solution were added into the 96-well microplate to produce a final volume of 100 μl per well. The reaction was incubated at room temperature for 1 hr and the polarization values were measured by using fluorescence microplate reader, Polarion (Tecan, Research Triangle Park, N.C.) with excitation wavelength 495 nm and emission wavelength 535 nm. The polarization value versus test molecule concentration curves was analyzed by graphfit software to generate IC50 values.
In this assay, recombinant hER and the commercial synthetic estrogen, ES2 containing fluorescence polarization property, are used. This assay is a homogenous assay. When the assay solution only contains ES2, the solution exerts weak fluorescence polarization property due to the quick rotation of free ES2 molecule. […] Addition of the antiestrogen to the ES2/hER displaces ES2 from hER and results in the whole solution exerting less fluorescence polarization property than the solution without antiestrogen.

[2] = tested on: MDA-MB-231 cells; assay: hER negative breast cancer cell proliferation assay; type: cell-based, human; conditions: hER negative cell line
Protocol: (§1) MCF-7 or MDA-MB-231 cells were inoculated into 12-well culture plates at 10000 cells in 2 ml maintained medium per well. Cells were allowed to attach to the bottom for 24 hrs incubation, then the seeding medium was removed and replaced by the experimental medium (phenol red-free DMEM supplemented with 5% charcoal-stripped fetal bovine serum and Penicillin (100 unit/ml)/Streptomycin ([…])). After 24 hr incubation, the test molecules dissolved in DMSO were added in the wells. […] The culture was continued for 3 days and the medium and tested compounds were replaced every two days. The final cell numbers were estimated with CellTiter proliferation assay kit (Promega, Madison, Wis.) by measuring the absorbance at 570 nm, which is directly proportional to the number of living cells in the culture.
In this assay, MDA-MB-231 breast cancer cell line, a hER negative cell line, was used. DMSO was used as reference.

[3] = target: T1, hERα (Homo sapiens, UniProt P03372); assay: Yeast two-hybrid and filter lift assay of hERα dimerization; type: cell-based
T1 construct: the full length hERα was inserted into pGAD-GAL4 and pGBD-GAL4 vectors; expressed in transfected cells; host or cells: S. cerevisiae Y190 transformed with pGBT-hER (pGBKT7) and pGAD-hER (pGADT7)
T1 sequence (P03372 1-595) 1: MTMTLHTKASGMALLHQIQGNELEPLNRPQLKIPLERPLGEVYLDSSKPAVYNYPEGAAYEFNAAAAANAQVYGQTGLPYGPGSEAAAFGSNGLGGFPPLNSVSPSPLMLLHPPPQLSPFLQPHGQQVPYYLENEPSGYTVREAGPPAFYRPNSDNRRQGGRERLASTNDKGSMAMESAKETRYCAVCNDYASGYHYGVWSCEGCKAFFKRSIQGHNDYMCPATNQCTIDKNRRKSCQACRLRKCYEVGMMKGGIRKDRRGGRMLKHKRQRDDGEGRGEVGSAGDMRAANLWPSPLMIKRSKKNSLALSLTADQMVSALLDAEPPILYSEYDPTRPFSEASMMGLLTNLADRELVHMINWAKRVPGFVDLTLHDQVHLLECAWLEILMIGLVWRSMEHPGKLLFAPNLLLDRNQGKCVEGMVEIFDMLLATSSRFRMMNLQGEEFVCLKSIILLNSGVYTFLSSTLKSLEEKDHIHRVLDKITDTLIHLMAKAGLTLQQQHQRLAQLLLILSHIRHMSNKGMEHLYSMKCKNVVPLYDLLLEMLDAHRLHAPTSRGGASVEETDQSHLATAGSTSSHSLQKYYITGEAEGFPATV
T1 sequence (P03372 1-595) 2: T1 sequence (P03372 1-595) 1
Protocol: The transformed yeasts with yeast two-hybrid vectors were cultured in synthetic medium lacking trytophan, and leucine. […] After that, the membranes were soaked in 0.4 ml Z-buffer/Xgal (60 mM Na2HPO4, 40 mM NaH2PO410 mM KCl, 1 mM MgSO4, 0.1% SDS, 50 mM -mercaptoethanol, 20 mM Xgal). The pictures of the results were taken within 2 and 3 hours after the -galactosidase assay was processed.
Dimerization of estrogen receptor plays an essential role in regulating estrogen receptor's functions including DNA binding, transactivation, and coactivator recruitment. In this study, yeast two hybrid and filter lift assays were used to determine the ability of compounds 2 and 6 to interrupt the dimerization of hERα. For setting up yeast two hybrid assay, the full length hERα was inserted into pGAD-GAL4 and pGBD-GAL4 vectors. In pGBD-GAL4, hERα was fused to the GAL4 DNA binding domain through its N terminus. In pGAD-GA14, hERα was fused to the GAL4 activation domain through its N terminus. When the dimerization of hERα occurs mainly through its C terminus, the GAL4 DNA binding domain binds to the repeated GAL4 response element located in front of the β-gal reporter gene and the whole complex, GAL4-BD/hERα/hERα/GAL4-AD, turns on the synthesis of the product of β-gal reporter gene. […] Filter lift assay in which X-gal was used, was employed to qualitatively determine the activity of β-galactosidase.

[4] = target: T2, hERα (Homo sapiens, UniProt P03372); assay: Transient transfection reporter assay for hERα in MCF-7 cells; type: cell-based; parameters: Relative Estrogenic Activity: dose or concentration left out as unconfirmed
T2 construct: mammalian expression plasmid containing full length human ER cDNA, pCMV-hER; expressed in transfected cells; host or cells: MCF-7 human breast cancer cells
T2 sequence (P03372 1-595): T1 sequence (P03372 1-595) 1
Protocol: For the transient transfection reporter assays, the cells were plated in triplicate in 12-well plates at a density of 300000 cells/well in the phenol red-free DMEM (GIBCO/BRL, Grand Island, N.Y.) supplemented with 10% charcoal-stripped fetal bovine serum (Hyclone, Logan, Utah), Penicillin (100 unit/ml)/Streptomycin ([…]), 2 mML-glutamine and 1 mM sodium Pyruvate. 24 hrs later, the cells were transfected with three plasmids by using Superfect transfection kit (Qiagen, Valencia, Calif.). For the detection of hER activity, cells were transfected with 2 g hER expression plasmid (pCMV-ER ), 6 g luciferase reporter plasmid containing estrogen receptor response element (PGL-TATA-Luc), and 600 ng normalization control, β-galactosidase reporter plasmid (pCMV ). For the detection of hER activity, cells were transfected with 3 ug hER expression plasmid (pcDNA3.1-hER), 6 g luciferase reporter plasmid containing estrogen receptor response element (PGL-TATA-Luc), and 600 ng pCMV. For determining the influence of ER's major coactivator in breast, AIB 1, 2 g pcDNA3.1-AIB1 was added into the transfection plasmid solution mentioned previously.
The transfected cells were rinsed with PBS and treated with various concentrations of test molecules and one […] (vehicle, DMSO or methanol) in phenol red-free culture medium. After incubation for further 24 hrs, the cells were washed with PBS and lysed with lysis buffer (Pierce, Rockford, Ill.). The lysate was used to determine the luciferase activity for ER's activity and the β-galactosidase activity for the normalization of transfection efficiency.
For the luciferase activity assay, 20 μl of lysate and 100 μl luciferase assay buffer (Promega, Madison, Wis.) were added into a well of 96-well plate. The luminescence was detected by using luminescence microplate reader, LumiCount (Packard, Boston, Mass.). For the β-galactosidase activity assay, […] β-galactosidase assay buffer (Clontech, Palo Alto, Calif.) were added into a well of 96-well plate. The β-galactosidase activity was measured as luminescence strength by using luminescence microplate reader, LumiCount (Packard, Boston, Mass.). The normalized reporter activity was calculated by the luciferase activity divided by that of β-galactosidase.
The transient transfection reporter assay was used to determine the estrogenic or antiestrogenic activity of tested compounds in employed human breast cancer cells, MCF-7 cells that are cotransfected with hERα expression and reporter plasmids. […] […] The estrogenic (antiestrogenic) activity was determined by dividing the luciferase activity by the β-galactosidase activity. To determine the influence of estrogen receptor's major coactivator in breast cancer, AIB1, for the compounds' estrogenic activity, the expression vector of AIB1 was additionally cotransfected with the plasmids mentioned above.

[5] = tested on: MCF-7 cells; assay: hERα positive breast cancer cell proliferation assay; type: cell-based, human
Protocol: as §1
MCF-7 cell line was used to perform this assay and the description of this assay as mentioned above. […] DMSO was used as reference.

[6] = target: T3, mutant hART877A (Homo sapiens, UniProt P10275, T878A); assay: Transient transfection reporter assay in LNCaP cells expressing mutant hAR; type: cell-based
T3 construct: LNCaP cells expressing a novel mutant hART877A; endogenous in cells; host or cells: LNCaP prostate cancer cells (transfected only with reporter plasmids, as far as printed)
T3 sequence (P10275 1-920 T878A): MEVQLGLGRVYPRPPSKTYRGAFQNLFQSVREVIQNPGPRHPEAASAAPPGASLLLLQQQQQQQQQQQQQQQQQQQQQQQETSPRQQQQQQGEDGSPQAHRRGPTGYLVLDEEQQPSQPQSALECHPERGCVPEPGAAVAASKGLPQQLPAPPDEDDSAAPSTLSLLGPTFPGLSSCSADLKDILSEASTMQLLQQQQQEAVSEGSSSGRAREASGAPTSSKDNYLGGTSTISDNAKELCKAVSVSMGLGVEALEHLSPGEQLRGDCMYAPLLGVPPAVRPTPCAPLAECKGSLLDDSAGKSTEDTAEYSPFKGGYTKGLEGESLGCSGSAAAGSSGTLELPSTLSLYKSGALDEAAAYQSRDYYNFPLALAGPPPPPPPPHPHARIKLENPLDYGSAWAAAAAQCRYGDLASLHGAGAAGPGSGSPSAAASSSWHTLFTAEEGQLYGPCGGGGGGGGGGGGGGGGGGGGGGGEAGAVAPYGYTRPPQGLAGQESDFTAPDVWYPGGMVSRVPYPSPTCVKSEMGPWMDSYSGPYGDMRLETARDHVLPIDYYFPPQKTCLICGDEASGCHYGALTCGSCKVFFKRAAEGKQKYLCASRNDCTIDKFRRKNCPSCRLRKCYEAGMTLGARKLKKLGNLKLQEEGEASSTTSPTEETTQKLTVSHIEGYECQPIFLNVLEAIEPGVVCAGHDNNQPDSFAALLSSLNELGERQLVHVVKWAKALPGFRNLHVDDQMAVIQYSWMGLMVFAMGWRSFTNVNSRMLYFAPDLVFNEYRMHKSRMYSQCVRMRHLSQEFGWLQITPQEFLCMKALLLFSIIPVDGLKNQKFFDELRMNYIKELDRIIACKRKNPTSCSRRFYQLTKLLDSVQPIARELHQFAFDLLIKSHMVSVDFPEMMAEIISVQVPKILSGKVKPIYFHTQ
Text: To determine the agonist and antagonist activity of these compounds, the transient transfection reporter assay in HepG2 cells were employed. […] Apart from the testing against wild type hAR, because hAR mutation is one of the important factors for antiandrogen-resistant symptoms discovered in advance prostate cancer patients, we also employed transient transfection reporter assay in the prostate cancer cell line, LNCaP cells expressing a novel mutant hART877A.

Compound	Relative Binding Affinity [1]	proliferation effects against MDA-MB-231 cells (FIG. 6, words) [2]	inhibitory activity against hERα dimerization in combination with estrogen ([3]; combined with estrogen)	induction of hERα dimerization, compound alone ([3]; tested alone)	Relative Estrogenic Activity ([4]; MCF-7 cells transfected with hERα, DMSO set as 1)	estrogenic effect ([4]; MCF-7 cells, hERα, compared with DMSO and tamoxifen)	Relative Antiestrogenic Activity at 2.5 μM ([4]; with 1 nM estradiol, 1 nM E2 used as reference (1))	inhibition effects against MCF-7 cell proliferation [5]	activity at 5 µM ([5]; Homo sapiens, MCF7, 72 h, MCF-7 cells, DMSO = 1, read-out: Relative Cancer Cell Proliferation Effects at 5 μM)	agonistic effects against mutant hART877A [6]
CCCCNC(=O)CCCCCCCCCCOCC1Cc2ccccc2CN1C(=O)c1cccc(F)c1 (stereo not shown) [Compound 2]	0.287	do not inhibit or stimulate the growth	weak inhibitory activity	did not induce the dimerization of hERα	0.9	do not exert any estrogenic effects	0.75	slightly lower inhibition effects than compound 6	66%	–
C[C@]1(O)CC[C@H]2[C@@H]3CCC4=CC(=O)CCC4=C3C=C[C@@]21C [Compound R1881, R1881]	–	–	–	–	–	–	–	–	–	significant agonism activity
